Drawing on PubChem BioAssay AID1645868 (Buhrlage Lab, Dana-Farber Cancer Institute and Novartis …, 2021), this text covers IC50 for 85 compounds.

In this experiment the target is OTU domain-containing protein 3 (Homo sapiens) (UniProt Q5T2D3). As to the kind of experiment: Validation of screening hits, potency titration, in vitro enzymatic, OTU domain-containing protein 3 DUB inhibitors (AID 1645868). Particulars: purified OTUD3, ubiquitin-rhodamine cleavage fluorescence, 2 h.

pIC50: −log10 of the molar value. Active and inactive are the calls of the source.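 How the source made its calls: active means maximal percent inhibition of the deubiquitinase OTUD3 of at least 30% across the tested doses; inactive means the rest.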

OTU domain-containing protein 3 (Homo sapiens), sequence (Q5T2D3 whole entry, looked up, the tested form may be a part): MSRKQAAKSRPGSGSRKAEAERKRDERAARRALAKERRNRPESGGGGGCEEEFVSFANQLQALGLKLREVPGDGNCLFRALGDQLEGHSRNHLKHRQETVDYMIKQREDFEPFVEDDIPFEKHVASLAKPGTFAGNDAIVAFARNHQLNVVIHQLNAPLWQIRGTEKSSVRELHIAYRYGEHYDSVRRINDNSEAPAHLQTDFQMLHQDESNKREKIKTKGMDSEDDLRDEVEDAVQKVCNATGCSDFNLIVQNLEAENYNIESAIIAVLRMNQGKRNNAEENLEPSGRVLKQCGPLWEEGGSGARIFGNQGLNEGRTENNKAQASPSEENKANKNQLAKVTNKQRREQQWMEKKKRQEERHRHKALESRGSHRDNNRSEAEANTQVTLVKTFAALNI

The term IC50 denotes the concentration at which inhibition is half-maximal. For `CCC(C(=O)NCc1ccncc1)N(c1cccc(Cl)c1)S(C)(=O)=O` (stereo not given), the IC50 is > 50 µM (inactive). On the same count and under the same terms, the value for `COc1ccc(C(=O)Nc2cc(-c3ccccn3)no2)cn1` was > 50 µM (inactive); that for `Cc1sc2nc(CN3CCCC3)nc(NCCc3ccc(Cl)cc3)c2c1C` was > 50 µM (inactive).

As for `CC(=O)Nc1cc(-c2cccc(O)c2)cn2c(-c3cnn(C)c3)cnc12`, the IC50 is > 50 µM (inactive). Turning to `N#Cc1ccc(Cl)cc1NC(=O)COc1cccnc1[N+](=O)[O-]`, the IC50 is > 50 µM (inactive). In general, pIC50 refers to −log10 of the IC50, conventionally taken in molar units. For the compound `CC(C)NC(=O)CN1C(=O)CC(C)Sc2ccc(S(=O)(=O)N3CCCCC3)cc21` (stereo not given), the negative logarithm of the IC50 (pIC50) was 4.50. For `COC(=O)CC1CC23OC2(C(=O)c2c(O)cccc2C3=O)C(C)O1` (stereo not given), the IC50 is > 50 µM (inactive).

On to `COc1ccc(NC(=O)c2ccc(-n3nnnc3SC)cc2)cc1Cl`, for which the IC50 was > 50 µM (inactive).

With `N#Cc1c(-c2ccccc2)ccn(Cc2cccc(C(F)(F)F)c2)c1=O`, the IC50 is > 50 µM (inactive). On to `COc1ccc(NC(=O)C2CC(=O)Nc3cc(-c4ccccc4)nn32)cc1` (stereo not given), for which the negative logarithm of the IC50 (pIC50) was 4.58. As for `COCCNC(=O)c1cc(-c2cn(-c3ccccn3)c(C)n2)n2ccccc12`, the IC50 was > 50 µM (inactive).

Take `COc1ccc(-c2nc3n(n2)C(CC(=O)Nc2cccc4ccccc24)C(=O)N3)cc1` (stereo not given): the pIC50 was 4.89. The same measure, in the same setting: the result for `CC1Oc2cc3c(-c4c(O)cc(O)c5c(O)c6c(cc45)OC(C)C(C)C6=O)c(O)cc(O)c3c(O)c2C(=O)C1C` (stereo not given) reads 5.61. As to `Cc1ccc(-c2nc(N3CCCC(O)C3)ncc2-c2cnccn2)s1` (stereo not given), the IC50 was > 50 µM (inactive). Same read-out and setting: the value for `O=S(=O)(c1cccc2cccnc12)N(CCc1ccccc1)C1CCN(CCc2ccc(Cl)cc2)CC1` was > 50 µM (inactive). As for `O=C(Nc1ncc2c(n1)-c1ccccc1CC2)C1CC1`, the pIC50 is 4.44. For the compound `O=C(CCn1c(=O)c2sccc2n(CC(=O)OCc2ccccc2)c1=O)NCc1ccc2c(c1)OCO2`, the negative logarithm of the IC50 (pIC50) was 4.68. Same read-out and setting: the result for `Cc1ccc(Cn2c(=O)c3ccccc3n3c(CCC(=O)N4CCN(c5ccccn5)CC4)nnc23)cc1` reads 5.04. In the case of `CC(C)(C)c1cc(CCC(=O)Nc2c3c(nc4c2CCC4)CCCC3)cc(C(C)(C)C)c1O`, the IC50 is > 50 µM (inactive). On to `Cc1ccc(Cn2c(=O)n(CCC(=O)NCCc3ccccc3)c(=O)c3ccccc32)cc1`, for which the pIC50 is 4.73. `Cc1ccc(C)c(S(=O)(=O)N2CCN(c3ccc4nnc(-c5ccco5)n4n3)CC2)c1`: the IC50 was > 50 µM (inactive). As for `COc1cccc(/C=C/C(=O)Nc2ccc(N3CCOCC3)cc2)c1OC`, the IC50 was > 50 µM (inactive). Still for that read-out and setting: the result for `CCOC(=O)c1cnn(-c2ccc(C(=O)Nc3ccc(C)c(Cl)c3)cc2)c1N` reads > 50 µM (inactive); that for `Cc1cc(O)c(=O)cc2c1C[C@H]1CC(C)(C)/C=C/C[C@@]3(C)Oc4cc(=O)c(O)cc(C)c4C[C@@H]3C[C@H](O)[C@]1(C)O2`, > 50 µM (inactive). The same measure, in the same setting: the value for `COc1ccc(C(=O)Nc2cc3c4c(c2)C(C)C(=O)N4CCC3)cc1` (stereo not given) was > 50 µM (inactive).

In the case of `O=C(c1ccsc1)N1CCC2(C1)Nc1cccnc1NC2=NC1CCCC1` (stereo not given), the IC50 is > 50 µM (inactive).

As for `Cc1cccc(NC(=O)Nc2ccc(C)n(CC(=O)Nc3ccccc3)c2=O)c1`, the IC50 was > 50 µM (inactive). Regarding `CCOc1ccc(NC(=O)Cn2c(=O)n(CCC(=O)NCc3ccco3)c(=O)c3ccccc32)cc1`, the negative logarithm of the IC50 (pIC50) was 4.94.

Regarding `COc1ccc(OC)c(C2CC(=O)Nc3n[nH]c(-c4ccccc4)c32)c1` (stereo not given), the pIC50 is 4.42. The same measure, in the same setting: the value for `CN(C)c1ccc(/C=N/NC(=O)c2ccc(Cl)cc2)cc1` was 4.62. `C/C=C(\Cl)C1=CC(=O)[C@]23C[C@H]2[C@@]2(C)CO[C@@]1(O)[C@@]3(O)O2`: the IC50 is > 50 µM (inactive). Still for that read-out and setting: the result for `O=C(c1cc(Cl)ccc1Cl)N1CCN(c2ccc3nnc(-c4ccco4)n3n2)CC1` reads > 50 µM (inactive); that for `COc1cc(-c2ccno2)ccc1S(=O)(=O)Nc1ccccc1Cl`, > 50 µM (inactive). Take `CCOc1ccc(NC(=O)Cn2c(=O)n(CCC(=O)NCc3ccccc3OC)c(=O)c3ccccc32)cc1`: the negative-log IC50 (pIC50) is 4.81. Same read-out and setting: the result for `O=C(CNC(=O)OCc1ccccc1)Nc1ccc(Br)cc1C(=O)c1ccccc1Cl` reads 4.87. `Cc1ccc(S(=O)(=O)N(C)C)cc1NC(=O)Cc1ccc(Cl)c(Cl)c1`: the IC50 was > 50 µM (inactive). On to `Oc1ccc(Br)cc1CNc1ccc(F)cc1`, for which the IC50 is > 50 µM (inactive). With `O=C(Cn1cncc(C(=O)NC2CCCC2)c1=O)Nc1cccc(F)c1`, the pIC50 is 4.41.

With `COc1cccc(NC(=O)c2cnc3c(c2)c(=O)n(C)c(=O)n3C)c1`, the pIC50 is 4.70.

With `COc1ccc(COc2ccc3c(C)c(CC(=O)N4CC[C@@]5(O)CCCC[C@H]5C4)c(=O)oc3c2)cc1`, the negative-log IC50 (pIC50) was 5.34. The same measure, in the same setting: the value for `Cc1cccc(NC(=O)CSc2nnc(-c3n[nH]c4c3CCC4)n2N)c1` was 4.50. Same read-out and setting: the result for `Cn1c(CCNC(=O)c2[nH]nc3c2CCc2ccccc2-3)nc2ccccc21` reads 4.53; that for `O=C(COc1ccc(Cl)cc1Cl)Nc1ccc2[nH]c(=O)[nH]c2c1`, 4.72. As to `CC(=O)c1cccc(NC(=O)c2ccc(-c3csc(C)n3)cc2)c1`, the IC50 is > 50 µM (inactive). Take `Oc1cc(OCc2cccc(C(F)(F)F)c2)ccc1-c1ccn[nH]1`: the pIC50 is 4.35. In the case of `COc1cccc(C(=O)Oc2ccc3c(=O)c(-c4ccc(OC)c(OC)c4)coc3c2)c1`, the IC50 is > 50 µM (inactive). The same measure, in the same setting: the value for `Cc1ccc(C)c(-n2c(C)cc(/C=C3/C(=N)N4C(c5ccc(F)cc5)=CSC4=NC3=O)c2C)c1` was > 50 µM (inactive); that for `Cc1ccc(NC(=O)c2cnc(N3CCOCC3)nc2)cc1F` was > 50 µM (inactive). Still for that read-out and setting: the value for `O=C(COc1nsnc1N1CCOCC1)Nc1ccc(F)c(F)c1` was > 50 µM (inactive). Turning to `O=[N+]([O-])c1ccccc1C(c1c[nH]c2ccccc12)c1c[nH]c2ccccc12`, the pIC50 is 4.31. For `CCc1nc2c(NC(=O)Nc3cccc(C(=O)OC)c3)cccn2n1`, the IC50 is > 50 µM (inactive). On the same count and under the same terms, the value for `COc1ccccc1S(=O)(=O)N1CC[C@@H]2CN(C)[C@@H]2C1` was > 50 µM (inactive); that for `Cc1cccc(NC(=O)c2nc(N3CCSCC3)c3cnn(C)c3n2)c1` was > 50 µM (inactive); that for `N#Cc1ccc(NC(=O)Nc2cccn(Cc3ccccc3Br)c2=O)cc1` was > 50 µM (inactive). On the same count and under the same terms, the value for `CC12c3ccc4c(c3C(=O)c3occ(c31)C(=O)CC2O)CCC4=O` (stereo not given) was > 50 µM (inactive).

For `Cc1ccc2nnc(-c3ccccc3)c(C(=O)N3CCN(c4ccccn4)CC3)c2c1`, the IC50 was > 50 µM (inactive).

Consider `Cc1c2c(nc3ccccc13)-c1ccccc1CC2`, for which the IC50 is > 50 µM (inactive).

As for `CN1c2ccccc2CN(CC(N)=O)CC1Cc1ccccc1` (stereo not given), the IC50 is > 50 µM (inactive).

Turning to `Cc1ccc(S(=O)(=O)N2CCCCC2)cc1NC(=O)Cc1cccc(F)c1`, the IC50 is > 50 µM (inactive). Regarding `O=C(CSc1ccc2nnc(-c3ccccc3)n2n1)N1CCCc2ccccc21`, the negative-log IC50 (pIC50) was 4.82.

With `COc1ccc(Cl)cc1-n1nnc(C(=O)N2CCc3ccccc3C2)c1C`, the IC50 is > 50 µM (inactive).

`O=C(NCc1ccc(F)cc1)N1CCC2(C1)Nc1cccnc1NC2=NCc1ccccc1` (stereo not given): the IC50 is > 50 µM (inactive). On to `Cc1cccc(NC(=O)CSc2nnc(-c3n[nH]c4c3CCC4)n2N)c1C`, for which the negative-log IC50 (pIC50) was 4.75. For the compound `COc1ccc(-c2nc3n(n2)C(c2cccc(O)c2)C2=C(CCCC2=O)N3)cc1` (stereo not given), the IC50 was > 50 µM (inactive). As for `Cc1ccc(NC(=O)CCC(=O)Nc2ccc3nc(N4CCCCC4)cc(C)c3c2)c(Br)c1`, the pIC50 was 4.30. In the case of `CCc1ccc(NC(=O)Cc2nnc3cc(-c4nc(C)no4)ccn23)cc1`, the negative logarithm of the IC50 (pIC50) is 4.53.

For the compound `COC1=C(C2=C(OC)C(=O)c3cc4c(c(O)c3C2=O)C(=O)OC(C)C4)C(=O)c2c(cc3c(c2O)C(=O)OC(C)C3)C1=O` (stereo not given), the pIC50 was 5.48.

`COc1cccc(CC(=O)Nc2cc(F)c3nc(N4CCOCC4)ccc3c2)c1`: the IC50 is > 50 µM (inactive). Still for that read-out and setting: the value for `Cc1nnc(Sc2cc(C(=O)NCCN3CCCC3)c3ccccc3n2)s1` was > 50 µM (inactive).

`COC(=O)c1cc(C)sc1NC(=O)c1cccc(OC)c1OC`: the IC50 was > 50 µM (inactive). Turning to `Nc1c(C(=O)NCc2ccc3c(c2)OCO3)nnn1Cc1ccc(Br)cc1F`, the pIC50 is 4.70. For the compound `Cc1ccc(NC(=O)c2ccc(N3CCOCC3)nn2)cc1F`, the IC50 is > 50 µM (inactive). Take `Cn1c(=O)/c(=C/c2ccccc2)[nH]c(=O)/c1=C/c1ccccc1`: the pIC50 is 4.65. Take `O=C(Cc1nnc2c(-c3nc(C4CC4)no3)cccn12)Nc1ccccc1`: the pIC50 was 4.64.

Turning to `COc1ccc(-c2cc3nc([C@H](C)NC(=O)Cc4cccc(F)c4)nn3cn2)cc1`, the pIC50 is 4.80. Same read-out and setting: the result for `O=S(=O)(Nc1ccc(O)cc1)c1ccc2oc3ccc(S(=O)(=O)Nc4ccc(O)cc4)cc3c2c1` reads 4.34; that for `COc1ccc(C2SCC(=O)Nc3c2c(=O)[nH]n3C2CCCCCC2)cc1` (stereo not given), 4.52.

Consider `COc1ccc(-n2nnc(C(=O)Nc3ccccc3)c2N)cc1`, for which the IC50 was > 50 µM (inactive). Still for that read-out and setting: the result for `COc1ccc(C)cc1NC(=O)Cc1csc(NC(=O)c2ccc(=O)[nH]c2)n1` reads > 50 µM (inactive); that for `Cc1c(C(=O)c2ccccc2)c2ccccn2c1CCc1ccccn1`, > 50 µM (inactive); that for `COc1cccc(NC(=O)Nc2ccc3nc4n(c(=O)c3c2)CCCC4)c1`, > 50 µM (inactive).

As for `CCOc1ccccc1NC(=O)COC(=O)C(c1ccccc1)c1ccccc1`, the IC50 was > 50 µM (inactive). The same measure, in the same setting: the value for `COc1cc(Cl)c(C)cc1NC(=O)Cn1c(=O)n(CC(=O)NCc2ccco2)c(=O)c2ccccc21` was > 50 µM (inactive); that for `Fc1cnc(N2CC[C@H]3CO[C@H](CNc4ncccn4)[C@H]3C2)nc1` was > 50 µM (inactive); that for `CCN1CCCC1CN(Cc1cc2cc(OC)ccc2[nH]c1=O)C(=O)NCc1ccccc1` (stereo not given) was > 50 µM (inactive).
